Patent publication US8592405B2, “Synergistic antimicrobial composition” (Dow Global Technologies LLC, priority 2009, dated 2013)
Where “and” joins values, the source holds several entries; their conditions need not be identical. Equal entries are not always repeated.

Key:
Format in all cases: cell-based
Oscillatoria sp. (Os) = test: Algal efficacy testing, modified ASTM 5589 (12-well, dry paint film); settings: three weeks; for % inhibition: at the Total conc; for Total conc, ppm: total biocide in paint taken as minimum inhibitory concentration
Description: (§1) Samples of white acrylic latex paint free of biocides were prepared in 50 ml aliquots. Each biocide was post added to give the necessary active ingredient concentration in the paint. The total biocides concentrations tested were 750, 1500, 2500 and 5000 ppm. After biocides addition, each sample was hand mixed for a minimum of 30 sec, followed by a 3 min run on the paint shaker (RED DEVIL). Each of the paint samples as well as a control sample (containing no biocide) were used to prepare films on black plastic-vinyl chloride/acetate copolymer panels (LENETA, Mahwah, N.J.) using a 3 mil bird bar applicator. The panels were thoroughly dried for 5 days avoiding direct exposure to sunlight. Square discs (15 mm^2) were cut out from each panel and were used as the substrate for fungal and algal efficacy tests. This sample size allowed for an agar border when the sample disc was placed into the well of the test plate.
(§2) The appropriate media (BOLD'S 3N for Chlorophytes, BG-11 for Cyanobacteria, and PDA for fungi) were used to support microbial growth. The test plates were maintained at room temp (25° C.-26° C.), in a cycled light-dark environment, for 3 weeks for algae. Plates for fungal challenge tests were maintained at 30C for three weeks. At the end of incubation period the samples were scored for percent area covered by visible microbial growth.
(§3) ASTM 5589 is a standard accelerated test method for determining resistance of various coatings (including paints) to algal defacement. To accommodate for high-throughput screening, this method was scaled down from petri plates to 12-well plates. A single coupon was placed with a pair of sterile forceps at the center of the agar plug (on top) with the painted surface facing upwards. Each well was inoculated with 150 μl of organism (1×10^8 cfu/ml) making sure that the whole surface (paint film as well as the agar surrounding it) was evenly covered. The plates were incubated at room temp (25° C.-26° C.) with cyclic exposure to light (OTT-Lite model #OTL4012P, 40 Watt, 26 KLumen) and dark phases, for a period of three weeks. The total area covered was evaluated at the end of each week according to percent area covered in 5% increments. While rating the plates, notations were made for zones of inhibition.
(§4) The SI is calculated based on F. C. Kull et.

Nostoc commune (Nc) = test: as above; settings: three weeks; for % inhibition: at the Total conc; for Total conc, ppm: total biocide in paint taken as minimum inhibitory concentration
Description: as §1, §2, §3, §4

[1] = tested on: Calothrix parientina (Cp); test: as above; settings: three weeks; for % inhibition: at the Total conc; for Total conc, ppm: total biocide in paint taken as minimum inhibitory concentration
Description: as §1, §2, §3, §4

[2] = tested on: Trentepohlia aurea + Trentepohlia odorata (Ta + To); test: as above; settings: three weeks; for % inhibition: at the Total conc; for Total conc, ppm: total biocide in paint taken as minimum inhibitory concentration
Description: as §1, §2, §3, §4

[3] = tested on: Chlorella sp. + Chlorella kessleri (Cs + Ck); test: as above; settings: three weeks; for % inhibition: at the Total conc; for Total conc, ppm: total biocide in paint taken as minimum inhibitory concentration
Description: as §1, §2, §3, §4

[4] = tested on: Stachybotris chartarum (Sc); test: Fungal efficacy testing, modified ASTM 5590 (12-well, dry paint film); settings: three weeks; for % inhibition: at the Total conc; for Total conc, ppm: total biocide in paint taken as minimum inhibitory concentration, 30 C
Description: as §1, §2
(§5) ASTM 5590 is a standard accelerated test method for determining resistance of various coatings (including paints) to fungal defacement. To accommodate for high-throughput screening, this method was scaled down from petri plates to 12-well plates. To set up the test, an agar plug was placed at the bottom of each well of the sterile 12-well plate. A single coupon was placed with a pair of sterile forceps at the center of the agar plug (on top) with the painted surface facing upwards. Each well was inoculated with 150 μl of organism (1×10^6 cfu/ml) making sure that the whole surface (paint film as well as the agar surrounding it) was evenly covered. The plates were incubated at 30° C. in presence of moisture, for a period of three weeks. The total percent area covered was evaluated and recorded at the end of each week after the 2nd week and recorded in increments of 5%.
as §4

[5] = tested on: Alternaria alternata (Aa); test: as above; settings: three weeks; for % inhibition: at the Total conc; for Total conc, ppm: total biocide in paint taken as minimum inhibitory concentration, 30 C
Description: as §1, §2, §5, §4

Aspergillus niger (An) = test: as above; settings: three weeks; for % inhibition: at the Total conc; for Total conc, ppm: total biocide in paint taken as minimum inhibitory concentration, 30 C
Description: as §1, §2
as §5, with “5%. […]” for “5%.”

Structure (SMILES) | % inhibition (Oscillatoria sp. (Os)) | Total conc, ppm (Oscillatoria sp. (Os)) | % inhibition (Nostoc commune (Nc)) | Total conc, ppm (Nostoc commune (Nc)) | % inhibition [1] | Total conc, ppm [1] | % inhibition [2] | Total conc, ppm [2] | % inhibition [3] | Total conc, ppm [3] | % inhibition [4] | Total conc, ppm [4] | % inhibition [5] | Total conc, ppm [5] | % inhibition (Aspergillus niger (An)) | Total conc, ppm (Aspergillus niger (An))
CCCCCCCCn1sc(Cl)c(Cl)c1=O [DCOIT, 4,5-dichloro-2-n-octyl-4-isothiazolin-3-one] | 80% | 750 ppm | 82.5% | 750 ppm | 75% | 1500 ppm | 72.5% | 1500 ppm | 70% | 1500 ppm | 32.5% | 5000 ppm | 87.5% | 5000 ppm | 75% | 5000 ppm
Cc1ccc(S(=O)(=O)C(I)I)cc1 [DIMTS, diiodomethyl-p-tolylsulfone] | 80% | 1500 ppm | 80% | 5000 ppm | 85% | 1500 ppm | 62.5% | 2500 ppm | 70% | 2500 ppm | 50% | 750 ppm | 77.5% | 2500 ppm | 75% | 750 ppm
CN(C)C(=O)Nc1cccc(C(F)(F)F)c1 [Fluometuron, 1,1-dimethyl-3-(α,α,α-trifluoro-m-tolyl)urea] | 95% and 62.5% and 82.5% | – | 100% and 90% and 85% | 750 ppm | 100% and 95% and 90% | 750 ppm | 95% and 82.5% and 62.5% | 750 ppm and 1500 ppm | 100% and 90.00% and 80% | – | 65% | 5000 ppm | – | 2500 ppm and 5000 ppm | – | 2500 ppm and 5000 ppm
